Measured values from patent EP1614683B1, “Indazole compounds and pharmaceutical compositions for inhibiting protein kinases, and methods for their use” (priority 1999, dated 2001).
Read-outs that look alike come from different tables or passages of the source.

What was measured:
human FAK (FAKcd409) = target: T1, human FAK (FAKcd409) (Homo sapiens, UniProt Q05397, P410T); experiment: FAK fluorescence polarization assay; type: biochemical; details: Table 5; 1 µM; read-out: % Inhibition @ 1 µM FAK
T1 construct: comprises residues methionine 409 to glutamate 689; made in house; host or cells: baculovirus vector expression system (insect cells)
T1 sequence (Q05397 409-689 P410T): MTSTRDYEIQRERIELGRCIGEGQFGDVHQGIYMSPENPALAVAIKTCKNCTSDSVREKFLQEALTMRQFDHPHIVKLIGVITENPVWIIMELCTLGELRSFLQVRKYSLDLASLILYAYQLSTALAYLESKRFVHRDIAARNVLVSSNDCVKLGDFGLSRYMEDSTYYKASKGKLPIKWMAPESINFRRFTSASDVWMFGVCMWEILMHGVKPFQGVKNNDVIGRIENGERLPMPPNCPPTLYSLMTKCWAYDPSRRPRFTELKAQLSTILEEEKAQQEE
In short: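 Baculovirus-expressed FAK catalytic domain (FAKcd409, 5 nM) phosphorylating 1 mg/ml poly Glu-Tyr (4:1) with 1 mM ATP in 100 mM Hepes pH 7.5, 10 mM MgCl2, 1 mM DTT. Stopped with EDTA; fluorescent peptide and anti-phosphotyrosine antibody added, product detected by fluorescence polarization.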

[1] = tested on: human umbilical vein endothelial cells (HUVEC); experiment: HUVEC proliferation assay (VEGF-stimulated, MTT); type: cell-based; details: Homo sapiens, HUVEC, Table 1
LCK tyrosine kinase = LCK tyrosine kinase (Homo sapiens, UniProt P06239, C224D/P223M); experiment: LCK spectrophotometric assay; type: biochemical; details: Table 1; compound concentration 1 µM; read-out: Lck-P* (% inhibition)
Sequence of LCK tyrosine kinase (P06239 223-509 P223M/C224D): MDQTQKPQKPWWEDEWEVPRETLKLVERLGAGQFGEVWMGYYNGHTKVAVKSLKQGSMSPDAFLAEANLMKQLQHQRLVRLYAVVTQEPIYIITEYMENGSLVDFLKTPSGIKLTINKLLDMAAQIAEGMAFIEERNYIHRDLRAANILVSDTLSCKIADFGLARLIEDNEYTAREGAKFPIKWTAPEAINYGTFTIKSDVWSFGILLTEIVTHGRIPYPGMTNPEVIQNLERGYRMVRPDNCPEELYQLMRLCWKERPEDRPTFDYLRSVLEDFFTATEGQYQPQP
Experimental: The spectrophotometric assay was carried out as described above for VEGF-R2, except for the following changes in concentration: LCK = 60 nM, MgCl2 = 0 mM, poly(E4Y1) = 20 mM.

CDK2/Cyclin A complex = CDK2/Cyclin A complex (Homo sapiens, UniProt P24941); experiment: CDK2/Cyclin A assay ([32P]ATP incorporation into Rb fragment); type: biochemical; details: read-out: CDK2 * (% inhibition)
human CHK1 (FL-CHK1) = target: T2, human CHK1 (FL-CHK1) (Homo sapiens, UniProt O14757); experiment: CHK1 coupled spectrophotometric assay; type: biochemical; details: read-out: CHK -1* (% inhibition)
T2 construct: C-terminally His-tagged full-length human CHK1 (FL-CHK1) was expressed using the baculovirus/insect cell system; made in house; host or cells: baculovirus/insect cell system
T2 sequence (O14757 1-476): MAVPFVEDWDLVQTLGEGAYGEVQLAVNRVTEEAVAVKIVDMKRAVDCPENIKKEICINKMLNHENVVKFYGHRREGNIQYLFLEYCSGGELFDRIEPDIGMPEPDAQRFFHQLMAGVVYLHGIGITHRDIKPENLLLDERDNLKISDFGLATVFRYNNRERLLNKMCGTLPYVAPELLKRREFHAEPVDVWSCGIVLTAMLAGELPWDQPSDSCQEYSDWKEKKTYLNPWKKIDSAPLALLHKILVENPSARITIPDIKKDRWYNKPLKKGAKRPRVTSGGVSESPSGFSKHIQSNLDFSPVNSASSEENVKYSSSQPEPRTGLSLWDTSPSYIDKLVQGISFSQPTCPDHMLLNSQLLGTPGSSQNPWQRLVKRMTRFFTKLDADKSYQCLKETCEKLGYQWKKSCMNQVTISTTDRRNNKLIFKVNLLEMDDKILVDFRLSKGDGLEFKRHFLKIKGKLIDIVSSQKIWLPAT
In short: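 His-tagged full-length human CHK1 from baculovirus/insect cells, 10 nM, phosphorylating Syntide-2. ADP formation coupled via PK/LDH with PEP to NADH oxidation, followed as absorbance decrease at 340 nm. Ki from initial rates at varying compound concentrations.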

[2] = target: T3, phosphorylated Tie-2 (aa 775-1122) (Homo sapiens, UniProt Q02763); experiment: TIE-2 spectrophotometric assay; type: biochemical; details: Table 5; 1 µM; bold values spectrophotometric assay, non-bolded DELFIA assay (bold not visible here); read-out: % Inhibition @ 1 µM Tie2-P
T3 construct: 4 to 12 nM phosphorylated Tie-2 (aa 775-1122); made in house; host or cells: insect cells
T3 sequence (Q02763 775-1122): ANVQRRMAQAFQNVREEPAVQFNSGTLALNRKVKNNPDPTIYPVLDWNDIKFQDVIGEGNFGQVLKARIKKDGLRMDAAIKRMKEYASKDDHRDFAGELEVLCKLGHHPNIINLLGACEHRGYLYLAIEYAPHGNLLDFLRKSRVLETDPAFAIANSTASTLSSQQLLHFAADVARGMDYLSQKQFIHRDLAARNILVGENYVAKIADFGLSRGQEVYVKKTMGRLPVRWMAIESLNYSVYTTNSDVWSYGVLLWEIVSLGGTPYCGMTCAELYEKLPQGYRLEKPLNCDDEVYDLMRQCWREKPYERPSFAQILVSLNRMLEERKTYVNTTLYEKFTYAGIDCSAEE
In short: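 Human phosphorylated Tie-2 kinase activity was measured spectrophotometrically by coupling ADP formation, from phosphoryl transfer to poly(Glu4 Tyr), to NADH oxidation via pyruvate kinase and lactate dehydrogenase. Absorbance loss at 340 nm was read on a Beckman DU650. Reactions held 1 mM phosphoenolpyruvate, 0.24 mM NADH, 40 mM MgCl2, 5 mM DTT, 0.5 mM ATP, and 15 units/mL each of PK and LDH in 100 mM HEPES, pH 7.5.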

CDK4/Cyclin D3 complex = CDK4/Cyclin D3 complex (Homo sapiens, UniProt P11802); experiment: biochemical; details: read-out: CDK4 * (% inhibition)
Sequence of CDK4/Cyclin D3 complex (P11802 whole entry): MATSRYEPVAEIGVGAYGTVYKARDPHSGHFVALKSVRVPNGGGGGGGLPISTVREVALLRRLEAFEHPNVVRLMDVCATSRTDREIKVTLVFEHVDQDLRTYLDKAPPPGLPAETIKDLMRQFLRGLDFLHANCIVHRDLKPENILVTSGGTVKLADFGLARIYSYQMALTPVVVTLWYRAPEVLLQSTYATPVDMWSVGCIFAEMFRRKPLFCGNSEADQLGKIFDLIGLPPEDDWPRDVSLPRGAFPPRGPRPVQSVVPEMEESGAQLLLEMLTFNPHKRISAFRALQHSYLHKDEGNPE
Sequence of CDK4/Cyclin D3 complex (P30281 whole entry partner): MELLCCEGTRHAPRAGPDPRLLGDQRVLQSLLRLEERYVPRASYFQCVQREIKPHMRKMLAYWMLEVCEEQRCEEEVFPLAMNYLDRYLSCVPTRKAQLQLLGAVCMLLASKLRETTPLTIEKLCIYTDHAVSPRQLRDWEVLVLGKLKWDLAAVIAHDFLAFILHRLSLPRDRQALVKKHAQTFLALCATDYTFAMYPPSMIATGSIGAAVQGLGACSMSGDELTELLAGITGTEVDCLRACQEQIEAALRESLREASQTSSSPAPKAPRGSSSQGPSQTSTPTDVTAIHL

[3] = + albumin, read-out: HUVEC + albumin IC50

Structure (SMILES)	inhibition at 1 µM (human FAK (FAKcd409)) [%]	IC50 [1, 3] [nM]	IC50 ([1]; read-out: HUVEC IC50) [nM]	inhibition at 1 µM (LCK tyrosine kinase) [%]	inhibition at 1 µM (CDK2/Cyclin A complex) [%]	inhibition at 1 µM (human CHK1 (FL-CHK1)) [%]	inhibition at 1 µM [2] [%]	inhibition at 1 µM (CDK4/Cyclin D3 complex) [%]
CCONC(=O)c1ccccc1Sc1ccc2c(/C=C/c3ccccn3)n[nH]c2c1 [Reference Example 35(dd), 6-[2-(ethoxycarbamoyl)phenylsufanyl]-3-E-[2-(pyridin-2-yl)ethenyl]-1H-indazole]	4	2.9	0.18	17	7	0	48	8
CCn1nc(C)cc1C(=O)Nc1cc(C(=O)c2ccc3c(/C=C/c4ccccn4)n[nH]c3c2)ccc1C [Reference Example 41(ee), 6-[3-((1-Ethyl-3-methyl-1H-pyrazol-5-yl)carboxamido)-4-methylbenzoyl]-3-E-[2-(pyridin-2-yl)ethenyl]-1H-indazole]	7	4.3	0.24	13	0	0	41	2
C#CCNC(=O)c1ccccc1Sc1ccc2c(/C=C/c3ccccn3)n[nH]c2c1 [Reference Example 35(cc), 6-[2-(2-Propynylcarbamoyl)phenylsulfany]-3-E-[2-(pyridin-2-yl)ethenyl]-1H-indazole]	7	1.6	0.05	15	5	0	47	6
CC(C)ONC(=O)c1ccccc1Sc1ccc2c(/C=C/c3ccccn3)n[nH]c2c1 [Reference Example 35(k)]	7	2.2	–	6	8	0	55	7
CCCn1nc(C)cc1C(=O)Nc1cccc(C(=O)c2ccc3c(/C=C/c4ccccn4)n[nH]c3c2)c1 [Reference Example 41(r)]	5	11	–	55	0	0	56	5
O=C(NNc1ccccn1)c1ccccc1Sc1ccc2c(/C=C/c3ccccn3)n[nH]c2c1 [Reference Example 35(n), 6-[2-(N^2-(pyrid-2-ylhydrazino)carbonyl)phenylsulfanyl]-3-E-[2-(pyridin-2-yl)ethenyl]-1H-indazole]	1	11	0.11	58	4	23	82	10
CCn1nc(C)cc1C(=O)Nc1cccc(Oc2ccc3c(/C=C/c4ccccn4)n[nH]c3c2)c1 [Reference Example 31(d), 6-[3-((1-Ethyl-3-methyl-1H-pyrazol-5-yl)carboxamido)phenoxy]-3-E-[2-(pridin-2-yl)ethenyl]-1H-indazole]	6	~13	1.3	52	5	0	46	9
CCn1nc(C)cc1C(=O)Nc1cccc(C(=O)c2ccc3c(/C=C/c4ccccn4)n[nH]c3c2)c1 [Reference Example 41(a), 6-[3-((1-Ethyl-3-methyl-1H-pyrazol-5-yl)carboxamido)benzoyl]. 3-E-[2-(pyridin-2-yl)ethenyl]-1H-indazole]	5	4.4	0.48	50	0	0	50	6
